Source: patent US20100087475A1, “PHARMACEUTICAL COMPOUNDS” (Biovali Laboratories International (Barbados) S.R.L., priority 2008, published 2010)

What was measured:
Adrenergic α2A Receptor = molecular target: T1, Adrenergic α2A Receptor (Homo sapiens, UniProt P08913); test: Radioligand binding, [3H] MK-912; settings: compound at 10 μM
T1 construct: expressed in transfected cells; host or cells: insect Sf9 cells
T1 sequence (P08913 1-465): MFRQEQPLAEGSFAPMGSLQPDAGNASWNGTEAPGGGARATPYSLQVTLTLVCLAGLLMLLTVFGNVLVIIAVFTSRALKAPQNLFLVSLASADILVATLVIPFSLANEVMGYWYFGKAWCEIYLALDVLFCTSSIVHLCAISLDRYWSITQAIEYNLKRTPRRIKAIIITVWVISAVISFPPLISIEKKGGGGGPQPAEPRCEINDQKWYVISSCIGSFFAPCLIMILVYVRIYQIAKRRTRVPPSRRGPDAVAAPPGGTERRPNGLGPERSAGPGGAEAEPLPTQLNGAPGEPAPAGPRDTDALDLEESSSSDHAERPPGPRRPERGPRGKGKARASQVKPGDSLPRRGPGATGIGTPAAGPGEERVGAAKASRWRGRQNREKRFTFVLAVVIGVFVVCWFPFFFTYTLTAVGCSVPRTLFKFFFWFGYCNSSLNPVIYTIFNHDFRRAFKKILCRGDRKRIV
Description: Compounds of the invention were subjected to specific binding assays to test their ability to bind to the receptors and transporter proteins described below.
(a) Adrenergic α2A Receptor:
• Reference: S. Uhlçn et al. J. Pharmacol. Exp. Ther., 271:1558-1565 (1994) • Source: Human recombinant insect Sf9 cells • Ligand: 1 nM [^3H]

dopamine receptors = test: Receptor binding studies, overall statement on dopamine receptors; design: species or system Human; settings: conclusion from % inhibition at 10 μM
Description: (d) Dopamine D1 Receptor:
• Reference: Dearry et al., Nature, 347:72-76, (1990) • Source: Human recombinant CHO cells • Ligand: 1.4 nM [3H] SCH-23390 • Vehicle: 1% DMSO • Incubation time/Temp: 2 hours @ 37° C. • Incubation buffer: 50 mM Tris-HCl, pH 7.4, 150 mM NaCl, 1.4 mM ascorbic acid, 0.001% BSA • Non Specific ligand: 10 μM (+)-butaclamol • Kd: 1.4 nM • Bmax: 0.63 pmole/mg protein • Specific binding: 90% • Quantitation method: Radioligand binding • Significance criteria: ≧50% of maximum stimulation or inhibition
(e) Dopamine D2L Receptor:
• Reference: Grandy et al., Proc. Natl. Acad. Sci. USA, 86:9762-9766 (1989) • Source: Human recombinant CHO cells • Ligand: 0.16 nM [^3H]
(f) Dopamine D2S Receptor:
(g) Dopamine D3 Receptor:
• Reference: Sokoloff et al., Nature, 347:146-151, (1990) • Source: Human recombinant CHO cells • Ligand: 0.7 nM [3H]
(h) Dopamine D4.2 Receptor:
• Reference: Van Tol et al., Nature, 350:610-614 (1991) • Source: Human recombinant CHO-K1 cells • Ligand: 0.5 nM [^3H]
(i) Dopamine D4.4 Receptor:
• Reference: Van Tol et al., Nature, 350:610-614 (1991) • Source: Human recombinant CHO-K1 cells • Ligand: 1.2 nM [^3H]
(j) Dopamine D4.7 Receptor:
• Reference: Van Tol et al., Nature, 350:610-614 (1991) • Source: Human recombinant CHO-K1 cells • Ligand: 1.5 nM [^3H]

% inhibition, (a) α2A Receptor (Adrenergic α2A Receptor) | inhibition of dopamine receptors (result in words) (dopamine receptors) | SMILES
13% |  | COc1cc2c(cc1O)[C@@H]1C[C@@H](O)[C@H](CC(C)C)CN1CC2 (single isomer, unassigned) [(+)-10-desmethyl-γ-dihydrotetrabenazine]
69% | potent inhibitor of dopamine receptors | COc1cc2c(cc1O)[C@@H]1C[C@@H](O)[C@H](CC(C)C)CN1CC2 (single isomer, unassigned) [(−)-10-desmethyl-γ-dihydrotetrabenazine]
